Measured values as given in US7655420B2, “Methods to increase or decrease bone density” (Celltech R & D, Inc., priority 2002, dated 2010).
“Also recorded” adds a separate entry of the source.

Assays:
[1] = test system: caspase activity in hMSC cells; test: apoptosis of hMSC cells by caspase activity (Homogeneous Caspase ELISA); type: cell-based, human; conditions: for human sclerostin-induced increase in caspase activity, effect of caspase inhibitors / apoptosis of hMSC cells (caspase activity), rat versus human sclerostin: hMSC cells, 24 hrs; for human sclerostin-induced increase in caspase activity, effect of caspase inhibitors: Roche ELISA; for caspase activity: hMSC in osteoblast-inducing media, 20 μg/ml sclerostin or other protein, 24 hours
Description: Human mesenchymal (hMSC) cells were plated in Osteoblast-inducing media (Biowhittaker's MSCGM medium supplemented with 100 nM dexamethasone, 50 μg/ml ascorbic acid, and 10 mM β-glycerophosphate) at a density of 10,000 cells/cm^2 in 96-well dishes.
For apoptosis assays, cells were treated with sclerostin or commercially available preparations of the BMP antagonists noggin, chordin, gremlin or twisted gastrulation (Tsg) for 24 hours prior to assay for caspase activity. In some experiments, cells were treated for various times with a partially purified preparation of baculovirus-expressed human sclerostin (0 to 30 μg/ml) or an equal volume of a protein preparation purified from Sf9 conditioned media (control) in the absence or presence of Calbiochem's caspase inhibitors. Cells were harvested and processed for apoptosis assays using the Homogeneous Caspase ELISA (Roche) or Cell Death (Histone-Associated DNA Fragmentation, Roche).

[2] = test system: SOST expression; test: BMP-6 induction of SOST expression in hMSC cells with test compounds (RT-PCR); type: cell-based, human; conditions: for Results (effect on BMP-6 induction of SOST expression): BMP-6, 72 hrs; for induction of SOST expression by BMP-6 (BMP-induced SOST expression): 72 hrs, no single concentration stated in the sentence
Description: The previous example illustrates that SOST expression was enhanced by bone morphogenetic proteins and modulated by steroids such as dexamethasone. In this example, human MSC cells were incubated with bone morphogenetic proteins in the presence of various test agents to determine whether other steroids and compounds could affect the BMP-induction of SOST. SOST expression was monitored by reverse transcriptase polymerase chain reaction (RT-PCR).
Human mesenchymal cells (hMSCs) were plated in regular growth media containing 2% FCS and treated with BMP-6 either alone or in combination with the test compounds. The cells were harvested 72 hrs later and RNA was prepared for RT-PCR analysis of SOST expression.

COC(=O)C[C@H](NC(=O)[C@H](C)NC(=O)[C@@H](NC(=O)[C@H](Cc1ccc(O)cc1)NC(=O)OCc1ccccc1)C(C)C)C(=O)CF [Caspase-1, Inhibitor VI, reference compound]
human sclerostin-induced increase in caspase activity, effect of caspase inhibitors [1]: blocked
human sclerostin-induced increase in caspase activity, effect of caspase inhibitors ([1]; listed as Cas-1): efficiently blocked
human sclerostin-induced increase in caspase activity, effect of caspase inhibitors ([1]; listed as Caspase-1 inhibitor): effectively blocked

O=C1C=C(S(=O)(=O)O)c2ccccc2C1=O [1,2-napthoquinone-4-sulfate]
Results (effect on BMP-6 induction of SOST expression) ([2]; compound at 1 × 10^−6 M): No Effect
Results (effect on BMP-6 induction of SOST expression) ([2]; compound at 5 × 10^−6 M): No Effect

C[C@]12CC[C@@H]3c4ccc(O)cc4C[C@@H](CCCCCCCCC[S+]([O-])CCCC(F)(F)C(F)(F)F)[C@H]3[C@@H]1CC[C@@H]2O (stereo partly drawn) [ICI 182,780]
Results (effect on BMP-6 induction of SOST expression) ([2]; compound at 1 × 10^−6 M): minimal effects; also recorded: No Effect

CC(=O)S[C@@H]1CC2=CC(=O)CC[C@]2(C)[C@H]2CC[C@@]3(C)[C@@H](CC[C@@]34CCC(=O)O4)[C@H]12 [Spironolactone]
Results (effect on BMP-6 induction of SOST expression) ([2]; compound at 1 × 10^−6 M): No Effect
Results (effect on BMP-6 induction of SOST expression) ([2]; compound at 1 × 10^−7 M): No Effect

CCc1[nH]c(-c2ccc(OC)cc2)nc1-c1ccncc1 [SB202474]
Results (effect on BMP-6 induction of SOST expression) ([2]; compound at 2 × 10^−6 M): No Effect

CC1(C)O[C@@H]2C[C@H]3[C@@H]4C[C@H](F)C5=CC(=O)C=C[C@]5(C)[C@@]4(F)[C@@H](O)C[C@]3(C)[C@]2(C(=O)CO)O1 [Fluocinolone acetonide]
induction of SOST expression by BMP-6 (BMP-induced SOST expression) [2]: blocks
Results (effect on BMP-6 induction of SOST expression) ([2]; compound at 1 × 10^−7 M): Inhibition
Results (effect on BMP-6 induction of SOST expression) ([2]; compound at 1 × 10^−7 M, listed as Fluo): blocked
Results (effect on BMP-6 induction of SOST expression) ([2]; compound at 1 × 10^−7 M, listed as fluocinolone acetonide): effectively blocked

Parathyroid Hormone (1-34): Calciotrophic Peptide (SVSEIQLMHNLGKHLNSMERVEWLRKKLQDVHNF; Parathyroid hormone; UniProt P01270 32-65, looked up, fragment)
Results (effect on BMP-6 induction of SOST expression) ([2]; compound at 1 × 10^−7 M): No Effect

CCCCC[C@H](O)/C=C/[C@H]1[C@H](O)CC(=O)[C@@H]1C/C=C\CCCC(=O)O [Prostaglandin E2]
induction of SOST expression by BMP-6 (BMP-induced SOST expression) [2]: blocks
Results (effect on BMP-6 induction of SOST expression) ([2]; compound at 1 × 10^−6 M): Inhibition
Results (effect on BMP-6 induction of SOST expression) ([2]; compound at 1 × 10^−6 M, listed as PGE2): blocked
Results (effect on BMP-6 induction of SOST expression) ([2]; compound at 1 × 10^−6 M, listed as prostaglandin E2): effectively blocked
Results (effect on BMP-6 induction of SOST expression) ([2]; compound at 1 × 10^−7 M): Inhibition

C[C@H](CCC(=O)NCCS(=O)(=O)O)[C@H]1CC[C@H]2[C@@H]3[C@@H](O)C[C@@H]4C[C@H](O)CC[C@]4(C)[C@H]3CC[C@]12C [Tauroursodeoxycholic acid]
Results (effect on BMP-6 induction of SOST expression) ([2]; compound at 2 × 10^−6 M): No Effect
Results (effect on BMP-6 induction of SOST expression) ([2]; compound at 2 × 10^−6 M, listed as tauroursodeoxycholic acid): minimal effects
Results (effect on BMP-6 induction of SOST expression) ([2]; compound at 2 × 10^−7 M): No Effect

COc1cccc(-c2cc(=O)c3ccccc3o2)c1N [PD98059]
Results (effect on BMP-6 induction of SOST expression) ([2]; compound at 2 × 10^−6 M): No Effect

C[S+]([O-])c1ccc(-c2nc(-c3ccncc3)c(-c3ccc(F)cc3)[nH]2)cc1 (stereo not drawn) [SB203580]
Results (effect on BMP-6 induction of SOST expression) ([2]; compound at 2 × 10^−6 M): No Effect

CC[C@H](C)C(=O)O[C@H]1C[C@@H](C)C=C2C=C[C@H](C)[C@H](CC[C@@H]3C[C@@H](O)CC(=O)O3)[C@H]21 [Lovastatin/Mevinolin, Lovastatin]
Results (effect on BMP-6 induction of SOST expression) ([2]; compound at 1 × 10^−7 M): No Effect
Results (effect on BMP-6 induction of SOST expression) ([2]; compound at 1 × 10^−7 M, listed as lovastatin): minimal effects

C[C@]12C=CC(=O)C=C1CC[C@H]1[C@@H]3C[C@@H](O)[C@](O)(C(=O)CO)[C@@]3(C)C[C@H](O)[C@@]12F [Triamcinolone]
induction of SOST expression by BMP-6 (BMP-induced SOST expression) [2]: blocks
Results (effect on BMP-6 induction of SOST expression) ([2]; compound at 1 × 10^−7 M): blocked; also recorded: Inhibition
Results (effect on BMP-6 induction of SOST expression) ([2]; compound at 1 × 10^−7 M, listed as triamcinolone): blocked

CC(=O)N[C@@H](CC(=O)O)C(=O)N[C@@H](CCC(=O)O)C(=O)N[C@H](C(=O)N[C@H](C=O)CC(=O)O)C(C)C [Caspase-3, Inhibitor I, reference compound]
human sclerostin-induced increase in caspase activity, effect of caspase inhibitors [1]: blocked
human sclerostin-induced increase in caspase activity, effect of caspase inhibitors ([1]; listed as Cas-3): efficiently blocked
human sclerostin-induced increase in caspase activity, effect of caspase inhibitors ([1]; listed as Caspase-3 inhibitor): effectively blocked

B1: inactivated sclerostin: inactive preparation of sclerostin, as determined by lack of effects in other biological and biochemical assays (protein, UniProt Q9BQB4 24-213, looked up)
Sclerostin: QGWQAFKNDATEIIPELGEYPEPPPELENNKTMNRAENGGRPPHHPFETKDVSEYSCRELHFTRYVTDGPCRSAKPVTELVCSGQCGPARLLPNAIGRGKWWRPSGPDFRCIPDRYRAQRVQLLCPGGEAPRARKVRLVASCKCKRLTRFHNQSELKDFGTEAARPQKGRKPRPRARSAKANQAELENAY
modifications: inactivated preparation
caspase activity [1]: no significant effect
caspase activity ([1]; listed as inactive preparation of sclerostin): did not significantly affect

B2: chordin: commercially available BMP antagonist (protein, UniProt Q9H2X0 27-955, looked up)
Chordin: AGPEPPVLPIRSEKEPLPVRGAAGCTFGGKVYALDETWHPDLGEPFGVMRCVLCACEAPQWGRRTRGPGRVSCKNIKPECPTPACGQPRQLPGHCCQTCPQERSSSERQPSGLSFEYPRDPEHRSYSDRGEPGAEERARGDGHTDFVALLTGPRSQAVARARVSLLRSSLRFSISYRRLDRPTRIRFSDSNGSVLFEHPAAPTQDGLVCGVWRAVPRLSLRLLRAEQLHVALVTLTHPSGEVWGPLIRHRALAAETFSAILTLEGPPQQGVGGITLLTLSDTEDSLHFLLLFRGLLEPRSGGLTQVPLRLQILHQGQLLRELQANVSAQEPGFAEVLPNLTVQEMDWLVLGELQMALEWAGRPGLRISGHIAARKSCDVLQSVLCGADALIPVQTGAAGSASLTLLGNGSLIYQVQVVGTSSEVVAMTLETKPQRRDQRTVLCHMAGLQPGGHTAVGICPGLGARGAHMLLQNELFLNVGTKDFPDGELRGHVAALPYCGHSARHDTLPVPLAGALVLPPVKSQAAGHAWLSLDTHCHLHYEVLLAGLGGSEQGTVTAHLLGPPGTPGPRRLLKGFYGSEAQGVVKDLEPELLRHLAKGMASLMITTKGSPRGELRGQVHIANQCEVGGLRLEAAGAEGVRALGAPDTASAAPPVVPGLPALAPAKPGGPGRPRDPNTCFFEGQQRPHGARWAPNYDPLCSLCTCQRRTVICDPVVCPPPSCPHPVQAPDQCCPVCPEKQDVRDLPGLPRSRDPGEGCYFDGDRSWRAAGTRWHPVVPPFGLIKCAVCTCKGGTGEVHCEKVQCPRLACAQPVRVNPTDCCKQCPVGSGAHPQLGDPMQADGPRGCRFAGQWFPESQSWHPSVPPFGEMSCITCRCGAGVPHCERDDCSLPLSCGSGKESRCCSRCTAHRRPAPETRTDPELEKEAEGS
caspase activity [1]: no increase; also recorded: no significant effect

B3: gremlin: commercially available BMP antagonist (protein, UniProt O60565 25-184, looked up)
Gremlin-1: KKKGSQGAIPPPDKAQHNDSEQTQSPQQPGSRNRGRGQGRGTAMPGEEVLESSQEALHVTERKYLKRDWCKTQPLKQTIHEEGCNSRTIINRFCYGQCNSFYIPRHIRKEEGSFQSCSFCKPKKFTTMMVTLNCPELQPPTKKKRVTRVKQCRCISIDLD
caspase activity [1]: no increase; also recorded: no significant effect

B4: Tsg: twisted gastrulation, commercially available BMP antagonist (protein, UniProt Q9GZX9 26-223, looked up)
Twisted gastrulation protein …: CNKALCASDVSKCLIQELCQCRPGEGNCSCCKECMLCLGALWDECCDCVGMCNPRNYSDTPPTSKSTVEELHEPIPSLFRALTEGDTQLNWNIVSFPVAEELSHHENLVSFLETVNQPHHQNVSVPSNNVHAPYSSDKEHMCTVVYFDDCMSIHQCKISCESMGASKYRWFHNACCECIGPECIDYGSKTVKCMNCMF
caspase activity [1]: no increase; also recorded: no significant effect

B5: rat sclerostin: rat sclerostin protein (SEQ ID NO:8) (protein, listed as Rattus norvegicus)
chain: MQLSLAPCLACLLVHAAFVAVESQGWQAFKNDATEIIPGLREYPEPPQELENNQTMNRAENGGRPPHHPYDTKDVSEYSCRELHYTRFVTDGPCRSAKPVTELVCSGQCGPARLLPNAIGRVKWWRPNGPDFRCIPDRYRAQRVQLLCPGGAAPRSRKVRLVASCKCKRLTRFHNQSELKDFGPETARPQKGRKPRPRARGAKANQAELENAY
apoptosis of hMSC cells (caspase activity), rat versus human sclerostin [1]: induced the apoptosis
apoptosis of hMSC cells (caspase activity), rat versus human sclerostin ([1]; listed as Rat sclerostin): increased the apoptosis of hMSC cells but to a lesser extent
